Patent US10213451B2, “Methods and compounds for modulating the secretion or expression of adhesion proteins or angiopoietins of cells” (PACIFIC ARROW LIMITED, priority 2004, dated 2019)

Test system: swelling of the recto-anus of rats
Test: Croton oil induced swelling of the recto-anus (hemorrhoids model)
Format: in vivo, SD rats
Experimental: SD rats, male, age-matched 7-8 weeks old weighing 163±18 g were in the experiment. The tested animals were allowed to acclimate for a week.
A cotton swab with a diameter of 4 mm soaked with 0.16 mL of inducer (deionized water:pyridine:ethyl ether:6% croton oil/ethyl ether, 1:4:5:10) was applied to the rat's anus for 12 seconds. The final concentration of croton oil was 3%. The edema developed linearly until 7-8 hours after application and the severity of the edema was sustained for more than 24 hours. Twenty-four hours later, recto-anus tissue (approx. 10 mm long) was isolated after the rats were euthanized. The weights of rat body and recto-anus were measured. The recto-anus coefficient (RAC) was calculated using the formula: weight of recto-anus (mg)/body weight (g). RAC=weight of recto-anus (mg)/body weight (g)×100%
The rates were randomly divided into 5 groups: control, positive control and 3 test groups, and each group had 8 rats. The dose for 3 groups of rats are 10, 20 and 40 mg/kg. The dose of 0.5% CMC-Na for control group is the same as the each test group. The tested drug was fed into the stomach on the morning, once a day before the animal modeling for 5 days. The anus suppository was applied to positive control once after the animal modeling (1 mL/100 g). The weights of recto-anus and RACs were calculated, compared with the controls and subject to a student t-test.

C/C=C(/C)C(=O)O[C@H]1[C@H](OC(=O)/C(C)=C\C)[C@@]2(CO)C(CC1(C)C)C1=CCC3[C@@]4(C)CC[C@H](O[C@@H]5OC(C(=O)O)[C@@H](O)C(O[C@@H]6O[C@@H](CO)C(O)C6O)C5O[C@@H]5OC(CO)[C@H](O)C(O)C5O)C(C)(C)C4CC[C@@]3(C)[C@]1(C)[C@@H](O)[C@H]2O (stereo partly drawn) [Xanifolia-Y, 3-O-[β-D-galactopyranosyl (1→2)]-α-L-arabinofuranosy (1→3)-β-D-glucuronopyranosyl-21,22-O-diangeloyl-3β, 15α, 16α, 21β, 22α, 28-hexahydroxyolean-12-ene]
RAC (10 mg/Kg): 1.83 ± 0.36
Reduction rate % (10 mg/Kg): 21.5%
Weight of recto-anus (10 mg/Kg fed into the stomach once a day for 5 days): 4.68 ± 0.77 g
RAC (20 mg/Kg): 1.61 ± 0.24
Reduction rate % (20 mg/Kg): 30.9%
Weight of recto-anus (20 mg/Kg): 4.28 ± 0.60 g
RAC (40 mg/Kg): 1.51 ± 0.23
Reduction rate % (40 mg/Kg): 35.1%
Weight of recto-anus (40 mg/Kg): 3.97 ± 0.65 g
